Values quoted from earlier work as cited in paper PMC4021529 (British Journal of Cancer, 2014).
Read-outs that look alike come from different tables or passages of the source.

System: advanced solid tumours
Details: phase I trial, advanced solid malignancies, cited from earlier work

| Structure (SMILES) | objective responses (ref Olmos et al, 2011) | objective responses (ref Garland et al, 2006) |
| --- | --- | --- |
| C[C@@H](Oc1cc(-n2cnc3ccc(CN4CCN(C)CC4)cc32)sc1C(N)=O)c1ccccc1C(F)(F)F [GSK461364] | no objective responses |  |
| COc1ccc(S(=O)(=O)N(C(C)=O)c2ccccc2/C=C/c2cc[n+]([O-])cc2)cc1 [HMN-214] |  | no objective responses |
